Patent US9073935B2, “Substituted benzylspiroindolin-2-one analogs as positive allosteric modulators of the muscarinic acetylcholine receptor M1” (VANDERBILT UNIVERSITY, priority 2011, dated 2015)
Where two headings read alike, the source gives them in different places.

Target: T1, mAChR M1 (UniProt P11229)
T1 sequence (P11229 1-460): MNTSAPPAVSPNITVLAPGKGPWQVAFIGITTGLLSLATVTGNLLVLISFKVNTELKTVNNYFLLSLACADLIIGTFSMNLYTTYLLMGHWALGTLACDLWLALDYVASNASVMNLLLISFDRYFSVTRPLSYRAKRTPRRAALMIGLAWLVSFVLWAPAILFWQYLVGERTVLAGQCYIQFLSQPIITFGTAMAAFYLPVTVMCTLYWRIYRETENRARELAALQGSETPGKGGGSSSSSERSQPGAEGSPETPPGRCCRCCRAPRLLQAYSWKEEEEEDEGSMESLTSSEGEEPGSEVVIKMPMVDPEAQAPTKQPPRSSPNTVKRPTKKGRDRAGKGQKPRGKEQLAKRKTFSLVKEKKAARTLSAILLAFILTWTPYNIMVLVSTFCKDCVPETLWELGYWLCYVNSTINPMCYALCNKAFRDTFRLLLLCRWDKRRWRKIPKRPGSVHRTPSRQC
Test: mAChR M1 cell-based functional assay (calcium mobilization, potentiation of EC20 acetylcholine response)
Settings: for EC50: CHO-K1 cells expressing mAChR M1, increase in EC20 acetylcholine response, >10 μM estimated where no plateau in the curve
Procedure: Chinese hamster ovary (CHO-K1) cells stably expressing rat (r)M1 were purchased from the American Type Culture Collection and cultured according to their indicated protocol. […] To make stable rM2, hM2, rM3, hM4, and rM4 cell lines for use in calcium mobilization assays, these cells also were stably transfected with a chimeric G-protein (Gqi5) (provided by B. R. Conklin, University of California, San Francisco) using Lipofectamine 2000. rM1, hM1, rM3, hM3, rM5, and hM5 cells were grown in Ham's F-12 medium containing 10% heat-inactivated fetal bovine serum (FBS), 20 mM HEPES, and 50 μg/mL G418 sulfate. rM2-Gqi5, hM2-Gqi5, and hM4-Gqi5 cells were grown in the same medium also containing 500 μg/mL Hygromycin B. Stable rM4-Gqi5 cells were grown in DMEM containing 10% heat-inactivated FBS, 20 mM HEPES, 400 μg/mL G418 sulfate, and 500 μg/mL Hygromycin B.
For high throughput measurement of agonist-evoked increases in intracellular calcium, CHO-K1 cells stably expressing muscarinic receptors were plated in growth medium lacking G418 and hygromycin at 15,000 cells/20 μL/well in Greiner 384-well black-walled, tissue culture (TC)-treated, clear-bottom plates (VWR). Cells were incubated overnight at 37° C. and 5% CO2. […] Compound master plates were formatted in an 11 point CRC format (1:3 dilutions) in 100% DMSO with a starting concentration of 10 mM using the BRAVO liquid handler (Agilent). Test compound CRCs were then transferred to daughter plates ([…]) using the Echo acoustic plate reformatter (Labcyte, Sunnyvale, Calif.) and then diluted into assay buffer (40 μL) to a 2× stock using a Thermo Fisher Combi (Thermo Fisher Scientific, Waltham, Mass.).
Calcium flux was measured using the Functional Drug Screening System (FDSS) 6000 (Hamamatsu Corporation, Tokyo, Japan) as an increase in the fluorescent static ratio. Compounds were applied to cells (20 μL, 2×) using the automated system of the FDSS 6000 at 4 s into the 300 s protocol and the data were collected at 1 Hz. […] Agonist activity was analyzed as a concentration-dependent increase in calcium mobilization upon compound addition. Positive allosteric modulator activity was analyzed as a concentration-dependent increase in the EC20 acetylcholine response. Antagonist activity was analyzed as a concentration-dependent decrease in the EC80 acetylcholine response. Concentration-response curves were generated using a four-parameter logistical equation in XLfit curve fitting software (IDBS, Bridgewater, N.J.) for Excel (Microsoft, Redmond, Wash.) or Prism (GraphPad Software, Inc., San Diego, Calif.).
The calcium mobilization assay was also used to determine “efficacy”. In the context of the assays carried out for the data in Table II, “efficacy” (% ACh at 30 μM) is defined as the maximal response in the calcium flux as determined by the sigmoidal curve fit of the concentration response curve, or in the absence of an acceptable curve fit, the response recorded at 30 μM test compound, stated as a percentage of the response elicited by a concentration of Ach that induces approximately 80% of a maximal (i.e. saturating) ACh response.
Substituted benzylspiroindolin-2-one analogs were synthesized as described above. Activity (EC50 and Emax) was determined in the mAChR M1 cell-based functional assay as described above and the data are shown in Table III. The compound number corresponds to the compound numbers used in Tables I and II.

Emax (% ACh maximum at 30 μM) | EC50 | Emax | Compound
62% | 2.9 µM |  | CN1CCC2(C1)C(=O)N(Cc1ccc(-c3cnn(C)c3)cc1F)c1ccccc12 (racemic) [Compound B18, 1-(2-fluoro-4-(1-methyl-1H-pyrazol-4-yl)benzyl)-1′-methylspiro[indoline-3,3′-pyrrolidin]-2-one]
73% | 1.5 µM |  | Cn1cc(-c2ccc(CN3C(=O)C4(CCN(C5CCCCC5)C4)c4ccccc43)c(F)c2)cn1 (single isomer, unassigned) [Compound B2]
46% | 2.7 µM |  | CN1CCC2(C1)C(=O)N(Cc1ccc(-c3cnn(C)c3)cc1F)c1ccccc12 (single isomer, unassigned) [Compound B16, 1-(2-fluoro-4-(1-methyl-1H-pyrazol-4-yl)benzyl)-1′-methylspiro[indoline-3,3′-pyrrolidin]-2-one]
76% | 3.8 µM |  | CN1CCC2(C1)C(=O)N(Cc1ccc(-c3cnn(C)c3)cc1F)c1ccccc12 (single isomer, unassigned) [Compound B31, 1-(2-fluoro-4-(1-methyl-1H-pyrazol-4-yl)benzyl)-1′-methylspiro[indoline-3,3′-pyrrolidin]-2-one]
28% | 3.9 µM |  | Cn1cc(-c2ccc(CN3C(=O)C4(CCN(C5CCCOC5)C4)c4ccccc43)c(F)c2)cn1 (single isomer, unassigned) [Compound B34]
57% | 3.9 µM |  | Cn1cc(-c2ccc(CN3C(=O)C4(CCN(C5CCCOC5)C4)c4ccccc43)c(F)c2)cn1 (single isomer, unassigned) [Compound B35]
38% | 5.3 µM |  | Cn1cc(-c2ccc(CN3C(=O)C4(CCN(C(=O)c5ccccc5)C4)c4ccccc43)c(F)c2)cn1 (single isomer, unassigned) [Compound B45]
38% | 5.8 µM |  | Cn1cc(-c2ccc(CN3C(=O)C4(CCN(C(=O)c5ccccc5)C4)c4ccccc43)c(F)c2)cn1 (single isomer, unassigned) [Compound B47]
39% | > 10 µM |  | Cn1cc(-c2ccc(CN3C(=O)C4(CCN(C5CCCCC5)C4)c4ccccc43)c(F)c2)cn1 (single isomer, unassigned) [Compound B58]
44% | > 10 µM |  | Cn1cc(-c2ccc(CN3C(=O)C4(CCN(C5CCCOC5)C4)c4ccccc43)c(F)c2)cn1 (single isomer, unassigned) [Compound B67]
60% | > 10 µM |  | Cn1cc(-c2ccc(CN3C(=O)C4(CCN(C5CCCOC5)C4)c4ccccc43)c(F)c2)cn1 (single isomer, unassigned) [Compound B68]
36% | > 10 µM |  | Cn1cc(-c2ccc(CN3C(=O)C4(CCN(CC5CCCCC5)C4)c4ccccc43)c(F)c2)cn1 (single isomer, unassigned) [Compound B72]
<20% | > 10 µM |  | Cn1cc(-c2ccc(CN3C(=O)C4(CCN(CC5CCCCC5)C4)c4ccccc43)c(F)c2)cn1 (single isomer, unassigned) [Compound B73]
43% | 1.3 µM |  | Cn1cc(-c2ccc(CN3C(=O)C4(CCN(C5CCCC5)C4)c4ccccc43)cc2)cn1 (centres unmarked) [Compound B1]
61% | 1.6 µM |  | Cn1cc(-c2ccc(CN3C(=O)C4(CCN(C5CCCC5)C4)c4ccccc43)c(F)c2)cn1 (centres unmarked) [Compound B3, 1′-cyclopentyl-1-(2-fluoro-4-(1-methyl-1H-pyrazol-4-yl)benzyl)spiro[indoline-3,3′-pyrrolidin]-2-one]
72% | 1.7 µM |  | Cn1cc(-c2cc(F)c(CN3C(=O)C4(CCN(C5CCCC5)C4)c4ccccc43)c(F)c2)cn1 (centres unmarked) [Compound B4]
66% | 1.8 µM |  | Cn1cc(-c2ccc(CN3C(=O)C4(CCN(C5CCCCC5)C4)c4ccccc43)c(F)c2)cn1 (centres unmarked) [Compound B5]

Emax (% ACh maximum at 30 μM) | EC50 | Emax | Compound
63% | 1.9 µM |  | Cn1cc(-c2ccc(CN3C(=O)C4(CCN(c5ncccn5)C4)c4ccccc43)c(F)c2)cn1 (centres unmarked) [Compound B7, 1-(2-fluoro-4-(1-methyl-1H-pyrazol-4-yl)benzyl)-1′-(pyrimidin-2-yl)spiro[indoline-3,3′-pyrrolidin]-2-one]
36% | 2 µM |  | Cn1cc(-c2ccc(CN3C(=O)C4(CCN(C5CCCC5)C4)c4ccccc43)cc2F)cn1 (centres unmarked) [Compound B8]
61% | 2.4 µM |  | Cn1cc(-c2ccc(CN3C(=O)C4(CCN(C5CCOCC5)C4)c4ccccc43)c(F)c2)cn1 (centres unmarked) [Compound B10]
60% | 2.4 µM |  | Cn1cc(-c2ccc(CN3C(=O)C4(CCN(CC5CC5)C4)c4ccccc43)c(F)c2)cn1 (centres unmarked) [Compound B11]
52% | 2.4 µM |  | Cn1cc(-c2ccc(CN3C(=O)C4(CCN(C5CCCC5)C4)c4ccccc43)c(F)c2F)cn1 (centres unmarked) [Compound B12]
62% | 2.4 µM |  | Cn1cc(-c2cc(F)c(CN3C(=O)C4(CCN(C5CCCC5)C4)c4ccccc43)cc2F)cn1 (centres unmarked) [Compound B13]
58% | 2.6 µM |  | Cn1cc(-c2ccc(CN3C(=O)C4(CCN(C5CCC5)C4)c4ccccc43)c(F)c2)cn1 (centres unmarked) [Compound B14]
58% | 2.7 µM |  | Cn1cc(-c2ccc(CN3C(=O)C4(CCN(C5CCSCC5)C4)c4ccccc43)c(F)c2)cn1 (centres unmarked) [Compound B15]
45% | 2.8 µM |  | CCn1cc(-c2ccc(CN3C(=O)C4(CCN(C5CCCC5)C4)c4ccccc43)c(F)c2)cn1 (centres unmarked) [Compound B17]
62% | 2.9 µM |  | Cn1cc(-c2ccc(CN3C(=O)C4(CCN(C5CCCOC5)C4)c4ccccc43)c(F)c2)cn1 (centres unmarked) [Compound B19]
67% | 3 µM |  | Cn1cc(-c2ccc(CN3C(=O)C4(CCN(C5CCCCC5F)C4)c4ccccc43)c(F)c2)cn1 (centres unmarked) [Compound B20]
51% | 3 µM |  | Cn1cc(-c2ccc(CN3C(=O)C4(CCN(C5CCCCCC5)C4)c4ccccc43)c(F)c2)cn1 (centres unmarked) [Compound B21]
86% | 3.2 µM |  | Cn1cc(-c2ccc(CN3C(=O)C4(OCCO4)c4ccccc43)c(F)c2)cn1 [Compound B22, 1′-(2-fluoro-4-(1-methyl-1H-pyrazol-4-yl)benzyl)spiro[[1,3]dioxolane-2,3′-indolin]-2′-one]
 | 3.2 µM | 63% | Cn1cc(-c2ccc(CN3C(=O)C4(CCN(CCF)C4)c4ccccc43)c(F)c2)cn1 (centres unmarked) [Compound B23]
65% | 3.2 µM |  | CCN1CCC2(C1)C(=O)N(Cc1ccc(-c3cnn(C)c3)cc1F)c1ccccc12 (centres unmarked) [Compound B24]
54% | 3.3 µM |  | Cn1cc(-c2ccc(CN3C(=O)C4(CCN(C5CCOC5)C4)c4ccccc43)c(F)c2)cn1 (centres unmarked) [Compound B25]

Compound | Emax (% ACh maximum at 30 μM) | EC50 | Emax
Cn1cc(-c2ccc(CN3C(=O)C4(CCN(C5CCCCC5F)CC4)c4ccccc43)c(F)c2)cn1 (centres unmarked) [Compound B9] | 32% | 2.3 µM | 
